Experimental data taken from publication PMC7529893, “Structural basis for substrate recognition and chemical inhibition of oncogenic MAGE ubiquitin ligases” (Nature Communications, 2020).

Target: T1, MAGE-A11:PCF11 interaction (GST-MAGE-A11 MHD and FAM-PCF11_4) (Homo sapiens, UniProt P43364)
T1 construct: GST-MAGE-A11 MHD (human MAGE-A11 MHD amino acid 218-429); made in house; host or cells: E. coli BL21(DE3)
T1 sequence (P43364 218-429): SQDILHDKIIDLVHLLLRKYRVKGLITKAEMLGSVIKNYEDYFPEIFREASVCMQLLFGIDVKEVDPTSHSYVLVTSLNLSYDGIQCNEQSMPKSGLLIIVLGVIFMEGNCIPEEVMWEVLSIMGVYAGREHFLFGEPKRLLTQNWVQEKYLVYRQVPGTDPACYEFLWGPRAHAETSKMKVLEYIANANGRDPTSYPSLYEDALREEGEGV
Experiment: TR-FRET dose response test of compounds for disruption of MAGE-A11:PCF11 binding
Details: Fig. 5c, 5f, Supplementary Fig. 4e legend; read-out: IC50, TR-FRET competition, disruption of MAGE-A11:PCF11 binding
In short: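 Competition of compounds against binding of FAM-PCF11_4 peptide to GST-MAGE-A11 MHD, detected with Tb-anti-GST, in 50 mM Tris pH 7.5, 20 mM MgCl2, 0.1 mg/ml BSA, 1 mM DTT. 90 min at ~25 °C; 520/490 nm emission ratio (340 nm excitation) fitted for IC50.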

| SMILES | IC50 [nM] |
| --- | --- |
| FC(F)(F)c1ccc2c(NCCCNCc3ccc4[nH]ccc4c3)ccnc2c1 [SJ000521054-02] | 400 |
| c1ccc2c(NCCCNCc3ccc4[nH]ccc4c3)ccnc2c1 [SJ001008066-01] | 130 |
